According to patent EP2118065B1, “Substituted 1H-benz[de]isoquinoline-1,3-diones” (priority 2007, dated 2008):

What was measured:
Assay in all cases: SRB in vitro cytotoxicity, human tumor cell line
Type in all cases: cell-based
[1] = tested on: OVCAR-5; conditions: 10^-5 M, Ovary: OVCAR-5, read-out: growth inhibition
Procedure: (§1) Compounds 3a-g were screened by sulforhodamine-B (SRB) semi-automated assay in a battery of cell lines. […] A., et. al. (1991); Feasibility high flux anticancer screen utilizing diverse panel of human tumor cell lines in culture. J Natl Cancer Inst. 83, 757-766]. Each compound was tested in triplicate sets of experiments at 10^-4 to 10^-6 M concentrations (Table 4).
(§2) A stock solution of 2 x 10^-2M was prepared in DMSO. The stock solutions were serially diluted to obtain working test solutions with complete growth medium (RPMI-1640 medium with 2mM glutamine, 100µg/ml streptomycin, pH 7.4, sterilized by filtration and supplemented with 10% fetal bovine serum and 100 units/ml penicillin before use) containing 50 µg/ml of gentamycin to obtain working test solutions. The working test solutions were not filtered/ sterilized but microbial contamination was controlled by addition of gentamycin in complete growth medium used for dilution of stock solutions to prepare working test solutions.
(§3) In vitro cytotoxicity against human cancer cell lines was determined^2 [Monk. A., et. al. (1991); Feasibility high flux anticancer screen utilizing diverse panel of human tumor cell lines in culture. J Natl Cancer Inst. 83, 757-766] using 96-well tissue culture plates. The cells were grown in tissue culture flasks in complete growth medium at 37°C in an atmosphere of 5% CO2 and 95% relative humidity in a carbon dioxide incubator. The cell suspension of required cell density (1-2 lakhs/ml) depending on the mass doubling time of cell lines was prepared in complete growth medium for determination of cytotoxicity. The aliquots of 100 µl of cell suspension were added to each well on a 96-well tissue culture plate. The blank wells contained complete medium in place of cell suspension. Simultaneously, control experiments with positive controls containing known anticancer agents were carried out. Cells were incubated for 24 hr.
(§4) The test materials (100 µl in each well) were added after 24-hours to the wells containing cell suspension and blank wells. The cells were allowed to grow in presence of test material by further incubating the plates for 48 hours. At the end of incubation period the cell growth was stopped by gently layering trichloroacetic acid (50% TCA, 50µl/well) on top of the medium in all the wells. The plates were incubated at 4°C for 1 hr. The plates were washed five times with distilled water to remove TCA, growth medium, low molecular weight metabolites, serum proteins etc. and air-dried.
(§5) The cell growth was measured^3 [Skehan, P, Storeng, R Scudiero, D, Monks, A, Mcmahon, J, Vistica, D, Warren, J.T., Bokesch, H., Kenney, S., Boyd, M.R. (1990). New colorimetric cytotoxicity assay for anti-cancer drug screening. J Natl Cancer Inst. 82: 1107-12] by staining with Sulphorhodamine B. Sulphorhodamine B (SRB, 0.4% in 1% acetic acid, 100 µl/well) was added to each well and plates were allowed to stand at room temperature for 30 minutes. The plates were washed with 1% acetic acid four times and then dried. Tris-HCl buffer (0.01 M, pH 10.5, 100 µl/well) was added to each well to solublise the dye. The plates were shaken gently for 10 minutes on a shaker and the optical density was recorded on ELISA reader at 540 nm. The cell growth was determined by subtracting mean OD value of respective blank from the mean OD value of experimental set. Percent growth in presence of test material was calculated considering the growth in absence of any test material as 100% and in turn percent growth inhibition in presence of test material was calculated. All the experiments were carried out in quadruplicate.

[2] = tested on: A549; conditions: 10^-5 M, Lung: A549, read-out: growth inhibition
Procedure: as §1, §2, §3, §4, §5

[3] = tested on: SK-N-SH; conditions: 10^-5 M, Neuroblastoma: SK-N-SH, read-out: growth inhibition
Procedure: as §1, §2, §3, §4, §5

[4] = tested on: HT-29; conditions: 10^-5 M, Colon: HT-29, read-out: growth inhibition
Procedure: as §1, §2, §3, §4, §5

[5] = tested on: 502713; conditions: 10^-5 M, Colon: 502713, read-out: growth inhibition
Procedure: as §1, §2, §3, §4, §5

[6] = tested on: MCF-7; conditions: MCF7, 10^-5 M, Breast: MCF-7, read-out: growth inhibition
Procedure: as §1, §2, §3, §4, §5

[7] = tested on: COLO-205; conditions: 10^-5 M, Colon: COLO-205, read-out: growth inhibition
Procedure: as §1, §2, §3, §4, §5

[8] = tested on: IMR-32; conditions: 10^-5 M, Neuroblastoma: IMR-32, read-out: growth inhibition
Procedure: as §1, §2, §3, §4, §5

[9] = tested on: DU-145; conditions: 10^-5 M, Prostate: DU-145, read-out: growth inhibition
Procedure: as §1, §2, §3, §4, §5

[10] = tested on: PC-3; conditions: 10^-5 M, Prostate: PC-3, read-out: growth inhibition
Procedure: as §1, §2, §3, §4, §5

SMILES: O=C1c2cccc3c([N+](=O)[O-])ccc(c23)C(=O)N1CCCCl [Compound 3f, 6-Nitro-2-[3-(Chloropropyl)]-1H-benz[de]isoquinoline-1,3-dione]
- inhibition at 10 µM [1]: > 50%
- inhibition at 10 µM [2]: ≤ 50%
- inhibition at 10 µM [3]: > 50%
- inhibition at 10 µM [4]: > 50%
- inhibition at 10 µM [5]: > 50%
- inhibition at 10 µM [6]: > 50%
- inhibition at 10 µM [7]: > 50%
- inhibition at 10 µM [8]: > 50%
- inhibition at 10 µM [9]: > 50%
- inhibition at 10 µM [10]: > 50%
